Source: patent US9365522B2, “Pyrazole amide derivative” (AMGEN INC., priority 2015, dated 2016)

Target: T1, ligand binding domain of human ROR gamma (Homo sapiens, UniProt P51449)
T1 construct: NM_001001523; expressed in transfected cells; host or cells: HEK293T
T1 sequence (P51449 247-497 isoform P51449-2): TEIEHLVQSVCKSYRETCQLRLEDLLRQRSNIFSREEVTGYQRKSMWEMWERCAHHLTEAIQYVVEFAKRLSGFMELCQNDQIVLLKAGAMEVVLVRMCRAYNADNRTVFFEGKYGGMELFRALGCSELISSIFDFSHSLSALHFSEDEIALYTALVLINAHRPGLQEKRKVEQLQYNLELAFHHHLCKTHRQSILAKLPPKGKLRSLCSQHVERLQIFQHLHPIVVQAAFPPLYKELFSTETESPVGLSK
Assay: ROR gamma reporter gene assay (GAL4-RORγ LBD luciferase, Dual-Glo)
Format: cell-based
Conditions: HEK293T cells transfected with pM-ROR gamma, 8 concentrations 3.5 nM to 10.5 μM, 24 h incubation; read-out: result (pIC50, inhibition of RORγ transcriptional activity) (converted)
Procedure, shortened: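 First, HEK293T cells are transfected with the GAL4–RORγ LBD construct, a 5×UAS luciferase reporter and a constitutive renilla control. Next, test compounds are added over eight concentrations (3.5 nM to 10.5 μM). After 24 h at 37 °C, Dual-Glo luminescence is measured and pIC50 fitted.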

SMILES: CC1(C)[C@@H]2C[C@H](N(CC(=O)c3c(Cl)cncc3Cl)C(=O)c3cnn([C@H]4CC[C@H](C(=O)O)CC4)c3C(F)(F)F)C[C@@H]21 [Example 211, trans-4-(4-((2-(3,5-dichloropyridin-4-yl)-2-oxoethyl)-((1R,3r,5S)-6,6-dimethyl-3-bicyclo[3.1.0]hexanyl)carbamoyl)-5-(trifluoromethyl)pyrazol-1-yl)cyclohexane-1-carboxylic acid]
- IC50: 22400 pM

SMILES: O=C(CN(C(=O)c1cnn([C@H]2CC[C@H](C(=O)O)CC2)c1C(F)(F)F)[C@H]1CC[C@@H](C(F)(F)F)CC1)c1c(Cl)cncc1Cl [Example 212, trans-4-(4-((2-(3,5-dichloropyridin-4-yl)-2-oxoethyl)-(4-(trifluoromethyl)cyclohexyl)carbamoyl)-5-(trifluoromethyl)pyrazol-1-yl)cyclohexane-1-carboxylic acid]
- IC50: 20000 pM

SMILES: O=C(CN(C(=O)c1cnn([C@H]2CC[C@H](C(=O)O)CC2)c1C(F)(F)F)[C@H]1CC[C@H](C(F)(F)F)CC1)c1c(Cl)cncc1Cl [Example 213, trans-4-(4-((2-(3,5-dichloropyridin-4-yl)-2-oxoethyl)-(4-(trifluoromethyl)cyclohexyl)carbamoyl)-5-(trifluoromethyl)pyrazol-1-yl)cyclohexane-1-carboxylic acid]
- IC50: 112000 pM

SMILES: COc1cccc(Cl)c1C(=O)CN(CC#CC(C)(C)C)C(=O)c1cnn([C@H]2CC[C@](C)(C(=O)O)CC2)c1C(F)(F)F [Example 214, trans-4-(4-((2-(2-chloro-6-methoxyphenyl)-2-oxoethyl)-(4,4-dimethylpent-2-ynyl)carbamoyl)-5-(trifluoromethyl)pyrazol-1-yl)-1-methylcyclohexane-1-carboxylic acid]
- IC50: 324000 pM

SMILES: O=C(CN(C(=O)c1cnn([C@H]2CC[C@H](C(=O)O)CC2)c1C(F)(F)F)C1CC2CCC1C2)c1c(Cl)cncc1Cl (stereo partly drawn) [Example 215, trans-4-(4-(3-bicyclo[2.2.1]heptanyl-(2-(3,5-dichloropyridin-4-yl)-2-oxoethyl)carbamoyl)-5-(trifluoromethyl)pyrazol-1-yl)cyclohexane-1-carboxylic acid]
- IC50: 32400 pM

SMILES: O=C(CN(Cc1cc(F)cc(F)c1)C(=O)c1cnn([C@H]2CC[C@H](C(=O)O)CC2)c1C(F)(F)F)c1c(Cl)nsc1Cl [Example 216, trans-4-(4-((2-(3,5-dichloro-1,2-thiazol-4-yl)-2-oxoethyl)-((3,5-difluorophenyl)methyl)carbamoyl)-5-(trifluoromethyl)pyrazol-1-yl)cyclohexane-1-carboxylic acid]
- IC50: > 1.05e+06 pM

SMILES: CC(C)(C)C#CCN(CC(=O)c1c(Cl)cccc1C(F)(F)F)C(=O)c1cnn([C@H]2CC[C@](C)(C(=O)O)CC2)c1C(F)(F)F [Example 217, trans-4-(4-((2-(2-chloro-6-(trifluoromethyl)phenyl)-2-oxoethyl)-(4,4-dimethylpent-2-ynyl)carbamoyl)-5-(trifluoromethyl)pyrazol-1-yl)-1-methylcyclohexane-1-carboxylic acid]
- IC50: 219000 pM

SMILES: CC(C)(C)C#CCN(CC(=O)c1c(Cl)cc(F)cc1Cl)C(=O)c1cnn([C@H]2CC[C@](C)(C(=O)O)CC2)c1C(F)(F)F [Example 218, trans-4-(4-((2-(2,6-dichloro-4-fluorophenyl)-2-oxoethyl)-(4,4-dimethylpent-2-ynyl)carbamoyl)-5-(trifluoromethyl)pyrazol-1-yl)-1-methylcyclohexane-1-carboxylic acid]
- IC50: 339000 pM

SMILES: CC1(C)[C@@H]2C[C@H](N(CC(=O)c3c(Cl)cc(Cl)cc3Cl)C(=O)c3cnn([C@H]4CC[C@](C)(C(=O)O)CC4)c3C(F)(F)F)C[C@@H]21 [Example 219, trans-4-(4-(((1R,3r,5S)-6,6-dimethyl-3-bicyclo[3.1.0]hexanyl)-(2-oxo-2-(2,4,6-trichlorophenyl)ethyl)carbamoyl)-5-(trifluoromethyl)pyrazol-1-yl)-1-methylcyclohexane-1-carboxylic acid]
- IC50: 4900 pM

SMILES: CC1(C)CCC(CN(CC(=O)c2c(Cl)cc(F)cc2Cl)C(=O)c2cnn([C@H]3CC[C@](C)(C(=O)O)CC3)c2C(F)(F)F)CC1 [Example 220, trans-4-(4-((2-(2,6-dichloro-4-fluorophenyl)-2-oxoethyl)-((4,4-dimethylcyclohexyl)methyl)carbamoyl)-5-(trifluoromethyl)pyrazol-1-yl)-1-methylcyclohexane-1-carboxylic acid]
- IC50: 105000 pM

SMILES: CC(C)(C)CN(CC(=O)c1c(Cl)cc(Cl)cc1Cl)C(=O)c1cnn([C@H]2CC[C@](C)(C(=O)O)CC2)c1C(F)(F)F [Example 221, trans-4-(4-(2,2-dimethylpropyl-(2-oxo-2-(2,4,6-trichlorophenyl)ethyl)carbamoyl)-5-(trifluoromethyl)pyrazol-1-yl)-1-methylcyclohexane-1-carboxylic acid]
- IC50: 2950 pM

SMILES: CC1(C)[C@@H]2C[C@H](N(CC(=O)c3c(Cl)cccc3C(F)(F)F)C(=O)c3cnn([C@H]4CC[C@](C)(C(=O)O)CC4)c3C(F)(F)F)C[C@@H]21 [Example 222, trans-4-(4-((2-(2-chloro-6-(trifluoromethyl)phenyl)-2-oxoethyl)-((1R,3r,5S)-6,6-dimethyl-3-bicyclo[3.1.0]hexanyl)carbamoyl)-5-(trifluoromethyl)pyrazol-1-yl)-1-methylcyclohexane-1-carboxylic acid]
- IC50: 4170 pM

SMILES: CC1(C)CC[C@@H](N(CC(=O)c2c(Cl)cncc2Cl)C(=O)c2cnn([C@H]3CC[C@H](C(=O)O)CC3)c2C(F)(F)F)C1 [Example 223, trans-4-(4-((2-(3,5-dichloropyridin-4-yl)-2-oxoethyl)-((1R)-3,3-dimethylcyclopentyl)carbamoyl)-5-(trifluoromethyl)pyrazol-1-yl)cyclohexane-1-carboxylic acid]
- IC50: 50100 pM

SMILES: C[C@]1(C(=O)O)CC[C@H](n2ncc(C(=O)N(CC(=O)c3c(Cl)cc(F)cc3Cl)CC3(F)CCCC3)c2C(F)(F)F)CC1 [Example 224, trans-4-(4-((2-(2,6-dichloro-4-fluorophenyl)-2-oxoethyl)-((1-fluorocyclopentyl)methyl)carbamoyl)-5-(trifluoromethyl)pyrazol-1-yl)-1-methylcyclohexane-1-carboxylic acid]
- IC50: 2690 pM

SMILES: C[C@]1(C(=O)O)CC[C@H](n2ncc(C(=O)N(CC(=O)c3c(Cl)cc(Cl)cc3Cl)CC3(F)CCCC3)c2C(F)(F)F)CC1 [Example 225, trans-4-(4-((1-fluorocyclopentyl)methyl-(2-oxo-2-(2,4,6-trichlorophenyl)ethyl)carbamoyl)-5-(trifluoromethyl)pyrazol-1-yl)-1-methylcyclohexane-1-carboxylic acid]
- IC50: 2950 pM

SMILES: Cc1cc(Cl)c(C(=O)CN(CC23CCC(C)(CC2)O3)C(=O)c2cnn([C@H]3CC[C@](C)(C(=O)O)CC3)c2C(F)(F)F)c(Cl)c1 [Example 226, trans-4-(4-((2-(2,6-dichloro-4-methylphenyl)-2-oxoethyl)-((1-methyl-7-oxabicyclo[2.2.1]heptan-4-yl)methyl)carbamoyl)-5-(trifluoromethyl)pyrazol-1-yl)-1-methylcyclohexane-1-carboxylic acid]
- IC50: 3390 pM

SMILES: Cc1cc(Cl)c(C(=O)CN(C(=O)c2cnn([C@H]3CC[C@](C)(C(=O)O)CC3)c2C(F)(F)F)C2CCC(C)(C)CC2)c(Cl)c1 [Example 227, trans-4-(4-((2-(2,6-dichloro-4-methylphenyl)-2-oxoethyl)-(4,4-dimethylcyclohexyl)carbamoyl)-5-(trifluoromethyl)pyrazol-1-yl)-1-methylcyclohexane-1-carboxylic acid]
- IC50: 3980 pM

SMILES: O=C(CN(Cc1ccc(F)cc1)C(=O)c1cnn([C@H]2CC[C@H](C(=O)O)CC2)c1CC(F)(F)F)c1c(Cl)cncc1Cl [Example 228, trans-4-(4-((2-(3,5-dichloropyridin-4-yl)-2-oxoethyl)-((4-fluorophenyl)methyl)carbamoyl)-5-(2,2,2-trifluoroethyl)pyrazol-1-yl)cyclohexane-1-carboxylic acid]
- IC50: 195000 pM

SMILES: CC1(C)CCC(N(CC(=O)c2c(Cl)cncc2Cl)C(=O)c2cnn([C@H]3CC[C@](C)(C(=O)O)CC3)c2C(F)(F)F)CC1 [Example 229, trans-4-(4-((2-(3,5-dichloropyridin-4-yl)-2-oxoethyl)-(4,4-dimethylcyclohexyl)carbamoyl)-5-(trifluoromethyl)pyrazol-1-yl)-1-methylcyclohexane-1-carboxylic acid]
- IC50: 12900 pM

SMILES: CC1(C)CCC(N(CC(=O)c2c(Cl)cc(F)cc2Cl)C(=O)c2cnn(C34CCC(C(=O)O)(CC3)CC4)c2C(F)(F)F)CC1 [Example 230, 4-(4-((2-(2,6-dichloro-4-fluorophenyl)-2-oxoethyl)-(4,4-dimethylcyclohexyl)carbamoyl)-5-(trifluoromethyl)pyrazol-1-yl)bicyclo[2.2.2]octane-1-carboxylic acid]
- IC50: 6610 pM

SMILES: CC1(C)CCC(N(CC(=O)c2c(Cl)cc(Cl)cc2Cl)C(=O)c2cnn(C34CCC(C(=O)O)(CC3)CC4)c2C(F)(F)F)CC1 [Example 231, 4-(4-((4,4-dimethylcyclohexyl)-(2-oxo-2-(2,4,6-trichlorophenyl)ethyl)carbamoyl)-5-(trifluoromethyl)pyrazol-1-yl)bicyclo[2.2.2]octane-1-carboxylic acid]
- IC50: 10700 pM
